From the supplement of paper PMC12533247

Experiments:
[1] = tested on: primary keratinocytes; assay: % change in live cells vs DMSO control; higher = less cytotoxic; details: time (h post treatment): 20
Method: (§1)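 Cytotoxicity in uninfected 2D primary donor keratinocytes (20 h post treatment) and fibroblasts (48 h post treatment), measured with NucSpot live/dead dyes on IncuCyte. Live cells are normalised to the 0.2% DMSO control and shown as % change. Three biological replicates for each of donors 3, 4 and 5.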

[2] = tested on: primary dermal fibroblasts; assay: as above; details: time (h post treatment): 48
Method: as §1

O=C(/C=C\n1cnc(-c2cc(C(F)(F)F)cc(C(F)(F)F)c2)n1)NNc1ccccn1 [Verdinexor]
% change in live cells [%]
Details	0.082305 µM	0.246914 µM	0.740741 µM	2.22222 µM	6.66667 µM	20 µM	60 µM
[1], donor: 3	-11	-23.3	-38.7	-44.3	-60.3	-68.3	-75.3
[1], donor: 4	-9	-17	-12	-32	-42.3	-74.7	-86.7
[1], donor: 5	-5.67	-12.7	-16.7	-23.3	-31.7	-74	-82
[2], donor: 3	-24	-20.3	-22.3	-23.3	-24.7	-27.7	-40.3
[2], donor: 4	-8.33	-9.67	-14	-9.67	-11	-13.3	-31.3
[2], donor: 5	-0.667	-6.33	-10.7	-15.7	-18.7	-23.7	-44

CC(=O)O[C@H]1C[C@H](O[C@H]2[C@@H](O)C[C@H](O[C@H]3[C@@H](O)C[C@H](O[C@H]4CC[C@@]5(C)[C@H](CC[C@@H]6[C@@H]5C[C@@H](O)[C@]5(C)[C@@H](C7=CC(=O)OC7)CC[C@]65O)C4)O[C@@H]3C)O[C@@H]2C)O[C@H](C)[C@H]1O[C@@H]1O[C@H](CO)[C@@H](O)[C@H](O)[C@H]1O [Lanatoside C]
% change in live cells [%]
Details	0.082305 µM	0.246914 µM	0.740741 µM	2.22222 µM	6.66667 µM	20 µM	60 µM
[1], donor: 3	-27	-47	-55.3	-53.7	-58	-67.7	-71.3
[1], donor: 4	-18	-39.7	-63	-64	-71.3	-76.3	-76.3
[1], donor: 5	-3.67	-54.3	-58.3	-59	-56.3	-57.3	-62.3
[2], donor: 3	-25.7	-39.7	-48.3	-47	-46	-43.3	-49.3
[2], donor: 4	-1.33	-20	-28.3	-29.7	-24.3	-22.7	-23.3
[2], donor: 5	-11.3	-32.7	-31.7	-37.3	-42	-46.7	-58.7

CC1(C)CC(=O)c2c(C(F)(F)F)nn(-c3ccc(C(N)=O)c(N[C@H]4CC[C@H](O)CC4)c3)c2C1 [SNX-2112]
% change in live cells [%]
Details	0.082305 µM	0.246914 µM	0.740741 µM	2.22222 µM	6.66667 µM	20 µM	60 µM
[1], donor: 3	-14.3	-38.3	-40.3	-43.7	-49	-59.3	-79.3
[1], donor: 4	4.33	-29	-53.3	-58.7	-70	-74	-74
[1], donor: 5	-22	-60.7	-72.3	-77	-79	-76.7	-57.7
[2], donor: 3	-17.7	-20.7	-23	-22.3	-22.7	-22.7	-21
[2], donor: 4	14.3	4.67	0.333	0.667	6.33	7.33	1
[2], donor: 5	9	-1.67	-1.67	-8.67	-10.3	-13.7	-32.3
